Reference: US11369605B2, “Optically active azabicyclo ring derivative” (priority 2018, dated 2022)

How the values were obtained:
[1] = test system: MOLM-13 cells; test: Test 2: inhibition of cell proliferation, MOLM-13; format: cell-based; conditions: Homo sapiens, cultured 7 days, PrestoBlue
Description: (§1) Test for Evaluating the Inhibition of Cell Proliferation RS4; 11 cells were obtained from American Type Culture Collection (ATCC). […] MOLM-13 cells were separately obtained from DSMZ (Deutsche Sammlung von Mikroorganismen und Zeilkulturen GmbH). […] The cells were plated to a 96-well plate in 2000 cells/well, each test compound was added thereto to adjust the final concentration of DMSO to 0.1% of DMSO, and the cells were cultured for 7 days. After the cultivation, the cell viability was calculated with PrestoBlue™ Cell Viability Reagent (Invitrogen, A13261).

[2] = test system: HOXA9 mRNA in MV4; 11 cells; test: Test 3: inhibition of mRNA transcription, HOXA9; format: cell-based; conditions: 20 to 24 hours, fitted with GAPDH
Description: (§2) Test 3: Test for the Inhibition of mRNA Transcription with Test Compounds
(§3) MV4; 11 cells were obtained from American Type Culture Collection (ATCC). […] After the incubation, the total RNA was extracted from the cells with RNeasy™ Mini Kit (QIAGEN, 74106), and cDNA was synthesized with Superscript™ VILO™ cDNA Synthesis Kit (Invitrogen, #11754250). By using TaqMan™ Gene Expression Master Mix (Applied Biosystems, 4369016) and TaqMan™ probe (Applied Biosystems), the expression level of mRNA was quantified from the obtained cDNA with 7900HT (Applied Biosystems). The expression level of each obtained gene (MEIS1 and HOXA9) was fitted with the expression level of mRNA of GAPDH.

[3] = test system: RS4; 11 cells; test: Test 2: inhibition of cell proliferation, RS4; 11; format: cell-based
Description: as §1

[4] = test system: MEIS1 mRNA in MV4; 11 cells; test: Test 3: inhibition of mRNA transcription, MEIS1; format: cell-based; conditions: for mRNA transcription inhibition activity (in words): MEIS1 and HOXA9, MV4, summary of Test 3; for mRNA at 1 μM (% control) MEIS1: MV4, 1 μM, 20 to 24 hours, fitted with GAPDH
Description: as §2, §3

[5] = target: hERG (human Ether-a-go-go Related Gene) (Homo sapiens (Human), UniProt Q12809); test: Test 4: hERG inhibition (QPatch HT)
[6] = target: Menin-MLL binding (His-Menin1-615, MLL1-172-FLAG) (Homo sapiens (Human), UniProt O00255); test: Test 1: inhibition of the Menin-MLL binding (HTRF); conditions: summary of Test 1 table
Description: Test 1: Test for Evaluating the Inbinition of the Menin-MLL Binding
After the incubation, the signal was detected with RUBYstar (BMG LABTECH).

Sequence of hERG (human Ether-a-go-go Related Gene) (Q12809 whole entry): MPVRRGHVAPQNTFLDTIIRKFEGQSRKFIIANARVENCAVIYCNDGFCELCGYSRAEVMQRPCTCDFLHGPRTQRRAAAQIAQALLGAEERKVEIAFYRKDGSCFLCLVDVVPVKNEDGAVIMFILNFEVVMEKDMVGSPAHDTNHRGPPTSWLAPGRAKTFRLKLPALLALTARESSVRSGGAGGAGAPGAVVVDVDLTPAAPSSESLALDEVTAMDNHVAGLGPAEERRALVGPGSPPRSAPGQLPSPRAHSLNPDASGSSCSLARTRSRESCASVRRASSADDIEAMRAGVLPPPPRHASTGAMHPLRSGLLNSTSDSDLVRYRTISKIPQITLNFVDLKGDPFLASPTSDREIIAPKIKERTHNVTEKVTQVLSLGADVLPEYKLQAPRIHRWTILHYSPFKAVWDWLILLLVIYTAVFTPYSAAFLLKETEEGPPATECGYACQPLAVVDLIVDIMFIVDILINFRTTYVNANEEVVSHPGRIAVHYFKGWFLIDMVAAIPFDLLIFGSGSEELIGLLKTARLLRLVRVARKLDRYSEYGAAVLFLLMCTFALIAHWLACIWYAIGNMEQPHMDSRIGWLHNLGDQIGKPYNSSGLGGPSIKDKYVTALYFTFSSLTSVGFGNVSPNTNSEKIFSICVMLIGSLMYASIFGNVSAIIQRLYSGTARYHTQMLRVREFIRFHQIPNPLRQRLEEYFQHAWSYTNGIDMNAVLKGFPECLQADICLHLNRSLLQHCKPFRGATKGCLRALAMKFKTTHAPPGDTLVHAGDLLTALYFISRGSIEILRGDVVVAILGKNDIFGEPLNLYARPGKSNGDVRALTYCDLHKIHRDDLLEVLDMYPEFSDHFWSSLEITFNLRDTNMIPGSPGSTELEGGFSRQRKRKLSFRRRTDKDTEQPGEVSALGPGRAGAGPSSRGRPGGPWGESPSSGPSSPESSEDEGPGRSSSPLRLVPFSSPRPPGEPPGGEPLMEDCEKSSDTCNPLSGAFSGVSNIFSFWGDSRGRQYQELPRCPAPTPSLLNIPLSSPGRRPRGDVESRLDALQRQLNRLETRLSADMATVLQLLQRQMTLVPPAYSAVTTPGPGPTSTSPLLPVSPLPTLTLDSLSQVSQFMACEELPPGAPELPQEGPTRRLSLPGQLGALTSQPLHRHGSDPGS
Sequence of Menin-MLL binding (His-Menin1-615, MLL1-172-FLAG) (O00255 other isoform, or with tags, fused parts or gaps): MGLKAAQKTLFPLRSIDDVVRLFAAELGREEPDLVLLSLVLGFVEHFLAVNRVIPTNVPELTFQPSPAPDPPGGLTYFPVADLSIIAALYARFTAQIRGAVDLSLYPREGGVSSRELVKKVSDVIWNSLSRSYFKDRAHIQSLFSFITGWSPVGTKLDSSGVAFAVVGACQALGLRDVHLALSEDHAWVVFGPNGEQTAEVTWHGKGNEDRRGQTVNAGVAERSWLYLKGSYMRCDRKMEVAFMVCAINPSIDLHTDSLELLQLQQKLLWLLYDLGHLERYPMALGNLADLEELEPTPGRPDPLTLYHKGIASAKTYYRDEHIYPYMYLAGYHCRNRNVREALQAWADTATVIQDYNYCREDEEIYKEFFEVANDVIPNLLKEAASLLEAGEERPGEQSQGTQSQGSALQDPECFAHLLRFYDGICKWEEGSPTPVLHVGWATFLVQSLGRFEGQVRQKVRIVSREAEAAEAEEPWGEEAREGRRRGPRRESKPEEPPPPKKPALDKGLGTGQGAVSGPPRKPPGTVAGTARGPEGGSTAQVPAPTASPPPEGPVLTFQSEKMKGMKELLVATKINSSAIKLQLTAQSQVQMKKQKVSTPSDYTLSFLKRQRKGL

Compound	IC50 [1]	mRNA at 1 μM (% control) HOXA9 [2]	IC50 ([3]; Homo sapiens, RS4, 11 cells, cultured 7 days, PrestoBlue)	mRNA transcription inhibition activity (in words) [4]	mRNA at 1 μM (% control) MEIS1 [4]	IC50 ([5]; read-out: hERG inhibition IC50, CHO cell strain stably expressing hERG)	gap between RS4; 11 proliferation IC50 and hERG current IC50 ([5]; summary of Test 4 table)	cell proliferation inhibition activity (in words) ([3]; summary of Test 2 (RS4; 11 and MOLM-13))	Menin-MLL binding inhibition activity (in words) [6]
C=C1C[C@@H]2CC[C@H]1[C@@H](C(=O)N1CC3(C1)CN(c1ncncc1Oc1ccc(F)cc1C(=O)N(C(C)C)C(C)C)C3)N2 [Example 7, 5-fluoro-2-[(4-{6-[(1S,3S,4R)-5-methylidene-2-azabicyclo[2.2.2]octane-3-carbonyl]-2,6-diazaspiro[3.3]heptan-2-yl}pyrimidin-5-yl)oxy]-N,N-di(propan-2-yl)benzamide]	30 nM	37.9 % control	10 nM	showed the mRNA transcription inhibition activity	12.7 % control				
2-[(4-{6-[(1R,3S,4R)-2-azabicyclo[2.2.2]octane-3-carbonyl]-2,6-diazaspiro[3.3]heptan-2-yl}pyrimidin-5-yl)oxy]-5-fluoro-N,N-di(propan-2-yl)benzamide [Example 11]		36.5 % control		showed the mRNA transcription inhibition activity	13.1 % control	> 10000 nM	more than 100 fold	potent	potent
